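The compound was tested at five concentrations on cells cultured in 96-well plates, with a 48-hour exposure period. Here, GI50 denotes the concentration required for 50% inhibition of growth. TGI: total growth inhibition.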
Legend:
Experiment in all cases: NCI-60 cell line screen, 48 h
K-562 leukemia = system: K-562 leukemia
SF-295 CNS = system: SF-295 CNS
COLO 205 colon = system: COLO 205 colon
M14 melanoma = system: M14 melanoma
EKVX NSCLC = system: EKVX NSCLC
OVCAR-8 ovarian = system: OVCAR-8 ovarian
SF-268 CNS = system: SF-268 CNS
SK-MEL-2 melanoma = system: SK-MEL-2 melanoma
UACC-257 melanoma = system: UACC-257 melanoma
SK-OV-3 ovarian = system: SK-OV-3 ovarian
NCI-H226 lung = system: NCI-H226 lung
SF-539 CNS = system: SF-539 CNS
TK-10 renal = system: TK-10 renal
MALME-3M melanoma = system: MALME-3M melanoma
HOP-62 NSCLC = system: HOP-62 NSCLC
OVCAR-3 ovarian = system: OVCAR-3 ovarian
HL-60(TB) leukemia = system: HL-60(TB) leukemia
CCRF-CEM leukemia = system: CCRF-CEM leukemia
HCT-15 colon = system: HCT-15 colon
A549 NSCLC = system: A549 NSCLC
IGROV1 ovarian = system: IGROV1 ovarian
MDA-MB-231 breast = system: MDA-MB-231 breast
SW-620 colon = system: SW-620 colon
OVCAR-4 ovarian = system: OVCAR-4 ovarian
T-47D breast = system: T-47D breast
ACHN renal = system: ACHN renal
SK-MEL-28 melanoma = system: SK-MEL-28 melanoma
NCI/ADR-RES ovarian = system: NCI/ADR-RES ovarian
OVCAR-5 ovarian = system: OVCAR-5 ovarian
NCI-H460 lung = system: NCI-H460 lung
UACC-62 melanoma = system: UACC-62 melanoma
NCI-H522 lung = system: NCI-H522 lung
PC-3 prostate = system: PC-3 prostate
LOX IMVI melanoma = system: LOX IMVI melanoma
HS 578T breast = system: HS 578T breast
KM12 colon = system: KM12 colon
RPMI-8226 leukemia = system: RPMI-8226 leukemia
U251 CNS = system: U251 CNS
HCT-116 colon = system: HCT-116 colon
CAKI-1 renal = system: CAKI-1 renal
HOP-92 NSCLC = system: HOP-92 NSCLC
NCI-H23 lung = system: NCI-H23 lung
SR leukemia = system: SR leukemia
HCC-2998 colon = system: HCC-2998 colon
BT-549 breast = system: BT-549 breast
UO-31 renal = system: UO-31 renal
SNB-75 CNS = system: SNB-75 CNS
MCF7 breast = system: MCF7 breast
HT29 colon = system: HT29 colon
MOLT-4 leukemia = system: MOLT-4 leukemia
SN12C renal = system: SN12C renal
RXF 393 renal = system: RXF 393 renal
786-0 renal = system: 786-0 renal
SNB-19 CNS = system: SNB-19 CNS
SK-MEL-5 melanoma = system: SK-MEL-5 melanoma
DU-145 prostate = system: DU-145 prostate
MDA-MB-435 = system: MDA-MB-435

COC(=O)Cc1ccc(Oc2nc3ccccc3nc2-c2cccs2)cc1
TGI (K-562 leukemia): > 100 µM | TGI (SF-295 CNS): > 100 µM | TGI (COLO 205 colon): > 100 µM | TGI (M14 melanoma): > 100 µM | TGI (EKVX NSCLC): > 100 µM | TGI (OVCAR-8 ovarian): > 100 µM | TGI (SF-268 CNS): > 100 µM | TGI (SK-MEL-2 melanoma): > 100 µM | TGI (UACC-257 melanoma): > 100 µM | TGI (SK-OV-3 ovarian): 92.2 µM | TGI (NCI-H226 lung): 99.8 µM | TGI (SF-539 CNS): > 100 µM | TGI (TK-10 renal): > 100 µM | TGI (MALME-3M melanoma): > 100 µM | TGI (HOP-62 NSCLC): > 100 µM | TGI (OVCAR-3 ovarian): > 100 µM | TGI (HL-60(TB) leukemia): > 100 µM | TGI (CCRF-CEM leukemia): > 100 µM | TGI (HCT-15 colon): > 100 µM | TGI (A549 NSCLC): > 100 µM | TGI (IGROV1 ovarian): > 100 µM | TGI (MDA-MB-231 breast): > 100 µM | TGI (SW-620 colon): > 100 µM | TGI (OVCAR-4 ovarian): > 100 µM | TGI (T-47D breast): > 100 µM | TGI (ACHN renal): > 100 µM | TGI (SK-MEL-28 melanoma): > 100 µM | TGI (NCI/ADR-RES ovarian): > 100 µM | TGI (OVCAR-5 ovarian): > 100 µM | TGI (NCI-H460 lung): > 100 µM | TGI (UACC-62 melanoma): > 100 µM | TGI (NCI-H522 lung): > 100 µM | TGI (PC-3 prostate): > 100 µM | TGI (LOX IMVI melanoma): > 100 µM | TGI (HS 578T breast): > 100 µM | TGI (KM12 colon): > 100 µM | TGI (RPMI-8226 leukemia): > 100 µM | TGI (U251 CNS): > 100 µM | TGI (HCT-116 colon): > 100 µM | TGI (CAKI-1 renal): > 100 µM | TGI (HOP-92 NSCLC): 63.3 µM | TGI (NCI-H23 lung): > 100 µM | TGI (SR leukemia): > 100 µM | TGI (HCC-2998 colon): > 100 µM | TGI (BT-549 breast): > 100 µM | TGI (UO-31 renal): > 100 µM | TGI (SNB-75 CNS): 24.7 µM | TGI (MCF7 breast): > 100 µM | TGI (HT29 colon): > 100 µM | TGI (MOLT-4 leukemia): > 100 µM | TGI (SN12C renal): > 100 µM | TGI (RXF 393 renal): 48.5 µM | TGI (786-0 renal): > 100 µM | TGI (SNB-19 CNS): > 100 µM | TGI (SK-MEL-5 melanoma): > 100 µM | TGI (DU-145 prostate): > 100 µM | TGI (MDA-MB-435): > 100 µM

Nc1nc2cc(-c3ccc4ncc(C(=O)N5CCOCC5)n4c3)ccc2o1
GI50 (K-562 leukemia): 47 µM | TGI (K-562 leukemia): > 100 µM | GI50 (SF-295 CNS): 5.53 µM | TGI (SF-295 CNS): 64.8 µM | GI50 (COLO 205 colon): 3.44 µM | TGI (COLO 205 colon): > 100 µM | GI50 (M14 melanoma): 4.64 µM | TGI (M14 melanoma): > 100 µM | GI50 (EKVX NSCLC): 4.26 µM | TGI (EKVX NSCLC): > 100 µM | GI50 (OVCAR-8 ovarian): 13.4 µM | TGI (OVCAR-8 ovarian): > 100 µM | GI50 (SF-268 CNS): 9.82 µM | TGI (SF-268 CNS): > 100 µM | GI50 (SK-MEL-2 melanoma): 5.33 µM | TGI (SK-MEL-2 melanoma): 46.8 µM | GI50 (UACC-257 melanoma): 7.8 µM | TGI (UACC-257 melanoma): > 100 µM | GI50 (SK-OV-3 ovarian): 1.59 µM | TGI (SK-OV-3 ovarian): 7.16 µM | GI50 (NCI-H226 lung): 5.2 µM | TGI (NCI-H226 lung): > 100 µM | GI50 (SF-539 CNS): 9.81 µM | TGI (SF-539 CNS): 73.3 µM | GI50 (TK-10 renal): 2.41 µM | TGI (TK-10 renal): 27.5 µM | GI50 (MALME-3M melanoma): 1.23 µM | TGI (MALME-3M melanoma): 7.15 µM | GI50 (HOP-62 NSCLC): 4.23 µM | TGI (HOP-62 NSCLC): 49.3 µM | GI50 (OVCAR-3 ovarian): 13.9 µM | TGI (OVCAR-3 ovarian): > 100 µM | GI50 (HL-60(TB) leukemia): 2.95 µM | TGI (HL-60(TB) leukemia): 60.9 µM | GI50 (CCRF-CEM leukemia): 8.74 µM | TGI (CCRF-CEM leukemia): > 100 µM | GI50 (HCT-15 colon): 5.4 µM | TGI (HCT-15 colon): > 100 µM | GI50 (A549 NSCLC): 4.86 µM | TGI (A549 NSCLC): > 100 µM | GI50 (IGROV1 ovarian): 1.74 µM | TGI (IGROV1 ovarian): 6.6 µM | GI50 (MDA-MB-231 breast): 4.89 µM | TGI (MDA-MB-231 breast): 67.9 µM | GI50 (SW-620 colon): 10.8 µM | TGI (SW-620 colon): > 100 µM | GI50 (OVCAR-4 ovarian): 6.07 µM | TGI (OVCAR-4 ovarian): > 100 µM | GI50 (T-47D breast): 0.417 µM | TGI (T-47D breast): 3.52 µM | GI50 (ACHN renal): 4.28 µM | TGI (ACHN renal): > 100 µM | GI50 (SK-MEL-28 melanoma): 5.4 µM | TGI (SK-MEL-28 melanoma): > 100 µM | GI50 (NCI/ADR-RES ovarian): 44.6 µM | TGI (NCI/ADR-RES ovarian): > 100 µM | GI50 (OVCAR-5 ovarian): 2.74 µM | TGI (OVCAR-5 ovarian): > 100 µM | GI50 (UACC-62 melanoma): 4.14 µM | TGI (UACC-62 melanoma): > 100 µM | GI50 (NCI-H522 lung): 7.13 µM | TGI (NCI-H522 lung): 88.5 µM | GI50 (PC-3 prostate): 3.19 µM | TGI (PC-3 prostate): > 100 µM | GI50 (LOX IMVI melanoma): 4.74 µM | TGI (LOX IMVI melanoma): > 100 µM | GI50 (HS 578T breast): 3.36 µM | TGI (HS 578T breast): 30 µM | GI50 (KM12 colon): 14.4 µM | TGI (KM12 colon): > 100 µM | GI50 (RPMI-8226 leukemia): 6.36 µM | TGI (RPMI-8226 leukemia): > 100 µM | GI50 (U251 CNS): 11.1 µM | TGI (U251 CNS): 80.3 µM | GI50 (HCT-116 colon): 4.4 µM | TGI (HCT-116 colon): > 100 µM | GI50 (HOP-92 NSCLC): 1.35 µM | TGI (HOP-92 NSCLC): 9.53 µM | GI50 (NCI-H23 lung): 6.58 µM | TGI (NCI-H23 lung): > 100 µM | GI50 (SR leukemia): 2.85 µM | TGI (SR leukemia): > 100 µM | GI50 (HCC-2998 colon): 10 µM | TGI (HCC-2998 colon): > 100 µM | GI50 (BT-549 breast): 4.39 µM | TGI (BT-549 breast): 37.9 µM | GI50 (UO-31 renal): 2.09 µM | TGI (UO-31 renal): 35.6 µM | GI50 (SNB-75 CNS): 0.916 µM | TGI (SNB-75 CNS): 15.7 µM | GI50 (MCF7 breast): 1.39 µM | TGI (MCF7 breast): > 100 µM | GI50 (HT29 colon): 3.52 µM | TGI (HT29 colon): > 100 µM | GI50 (MOLT-4 leukemia): 4.15 µM | TGI (MOLT-4 leukemia): 74.9 µM | GI50 (SN12C renal): 6.66 µM | TGI (SN12C renal): > 100 µM | GI50 (RXF 393 renal): 5.51 µM | TGI (RXF 393 renal): 36.7 µM | GI50 (786-0 renal): 14.6 µM | TGI (786-0 renal): > 100 µM | GI50 (SNB-19 CNS): 15.4 µM | TGI (SNB-19 CNS): 84.5 µM | GI50 (SK-MEL-5 melanoma): 3.95 µM | TGI (SK-MEL-5 melanoma): 50.7 µM | GI50 (DU-145 prostate): 9.09 µM | TGI (DU-145 prostate): > 100 µM | GI50 (MDA-MB-435): 5.71 µM | TGI (MDA-MB-435): > 100 µM
